Experimental data taken from PMC10962654 (Journal of Food and Drug Analysis, 2023).
Read-outs that look alike come from different tables or passages of the source.

Experiments:
cTn I = experiment: Plasma cTn I; format: in vivo, Sprague Dawley rats; settings: MI/R rats, Sigmoid-Emax model
IMA = experiment: Plasma IMA; format: in vivo, Sprague Dawley rats; settings: MI/R rats, Sigmoid-Emax model
α-HBDH = experiment: Plasma α-HBDH; format: in vivo, Sprague Dawley rats; settings: MI/R rats, Sigmoid-Emax model
[1] = MI/R rats, plasma, n = 6
CK-MB = experiment: Plasma CK-MB; format: in vivo, Sprague Dawley rats; settings: MI/R rats, Sigmoid-Emax model

SMILES	CL2 ([1]; GHI-H (GHI 10 mL/kg, i.v.)) [mL/min/kg]	K10 ([1]; GHI-H (GHI 10 mL/kg, i.v.)) [h⁻¹]	K12 ([1]; GHI-H (GHI 10 mL/kg, i.v.)) [h⁻¹]	K21 ([1]; GHI-H (GHI 10 mL/kg, i.v.)) [h⁻¹]	Q ([1]; GHI-H (GHI 10 mL/kg, i.v.)) [mL/min/kg]	V1 ([1]; GHI-H (GHI 10 mL/kg, i.v.)) [L/kg]	V2 ([1]; GHI-H (GHI 10 mL/kg, i.v.)) [L/kg]	t1/2α ([1]; GHI-H (GHI 10 mL/kg, i.v.)) [min]	CL1 ([1]; GHI-L (GHI […], i.v.)) [mL/min/kg]	CL2 ([1]; GHI-L (GHI […], i.v.)) [mL/min/kg]	K10 ([1]; GHI-L (GHI […], i.v.)) [h⁻¹]	K12 ([1]; GHI-L (GHI […], i.v.)) [h⁻¹]	K21 ([1]; GHI-L (GHI […], i.v.)) [h⁻¹]	Q ([1]; GHI-L (GHI […], i.v.)) [mL/min/kg]	V1 ([1]; GHI-L (GHI […], i.v.)) [L/kg]	V2 ([1]; GHI-L (GHI […], i.v.)) [L/kg]	t1/2α ([1]; GHI-L (GHI […], i.v.)) [min]	CL1 ([1]; GHI-M (GHI 5 mL/kg, i.v.)) [mL/min/kg]	CL2 ([1]; GHI-M (GHI 5 mL/kg, i.v.)) [mL/min/kg]	K10 ([1]; GHI-M (GHI 5 mL/kg, i.v.)) [h⁻¹]	also measured
O=C(/C=C/c1ccc(O)c(O)c1)O[C@@H]1C[C@](O)(C(=O)O)C[C@@H](O)[C@H]1O [Chlorogenic acid, chlorogenic acid]	173.38 ± 15.2	6.701 ± 1.078	27.459 ± 6.003	8.203 ± 0.823	173.3 ± 15.2	0.389 ± 0.059	1.273 ± 0.103	1.08 ± 0.18	44.48 ± 2.82	150 ± 15.1	4.274 ± 1.912	14.327 ± 4.021	3.902 ± 0.294	149.8 ± 15.1	0.672 ± 0.201	2.304 ± 0.146	2.04 ± 0.54	32.32 ± 2.43	120 ± 8.42	3.987 ± 0.663	Emax (maximal effect) of optimal PK/PD equation, ΔcTn I (cTn I; GHI-M (5 mL/kg, i.v.)): 7.28; Emax (maximal effect) of optimal PK/PD equation, ΔIMA (IMA; GHI-L ([…], i.v.)): 28.211; Emax (maximal effect) of optimal PK/PD equation, Δα-HBDH (α-HBDH; GHI-H (10 mL/kg, i.v.)): 86.524; Emax (maximal effect) of optimal PK/PD equation, Δα-HBDH (α-HBDH; GHI-L ([…], i.v.)): 48.745; Emax (maximal effect) of optimal PK/PD equation, Δα-HBDH (α-HBDH; GHI-M (5 mL/kg, i.v.)): 72.774; CL1 ([1]; GHI-H (GHI 10 mL/kg, i.v.)): 42.57 ± 1.53 mL/min/kg; K12 ([1]; GHI-M (GHI 5 mL/kg, i.v.)): 14.709 ± 1.766 h⁻¹; K21 ([1]; GHI-M (GHI 5 mL/kg, i.v.)): 4.84 ± 0.29 h⁻¹; Q ([1]; GHI-M (GHI 5 mL/kg, i.v.)): 119.8 ± 8.4 mL/min/kg; V1 ([1]; GHI-M (GHI 5 mL/kg, i.v.)): 0.496 ± 0.08 L/kg; V2 ([1]; GHI-M (GHI 5 mL/kg, i.v.)): 1.49 ± 0.142 L/kg; t1/2α ([1]; GHI-M (GHI 5 mL/kg, i.v.)): 1.86 ± 0.18 min
O=c1c(O[C@@H]2O[C@H](CO)[C@H](O)[C@H](O)[C@H]2O)c(-c2ccc(O)c(O)c2)oc2cc(O)cc(O)c12 [Hyperoside, hyperoside]	120.9 ± 37.88	21.205 ± 16.45	26.235 ± 8.526	6.031 ± 0.862	121 ± 37.85	0.309 ± 0.126	1.207 ± 0.352	0.9 ± 0.24	88.93 ± 8.22	144.8 ± 10.5	11.259 ± 2.48	18.242 ± 3.358	2.929 ± 0.214	144.8 ± 10.5	0.493 ± 0.117	2.979 ± 0.292	1.38 ± 0.3	76.58 ± 3.37	76.22 ± 11.2	14.742 ± 5.174	CL1 ([1]; GHI-H (GHI 10 mL/kg, i.v.)): 81.92 ± 12 mL/min/kg; K12 ([1]; GHI-M (GHI 5 mL/kg, i.v.)): 14.086 ± 2.688 h⁻¹; K21 ([1]; GHI-M (GHI 5 mL/kg, i.v.)): 4.889 ± 0.407 h⁻¹; Q ([1]; GHI-M (GHI 5 mL/kg, i.v.)): 76.2 ± 11.2 mL/min/kg; V1 ([1]; GHI-M (GHI 5 mL/kg, i.v.)): 0.34 ± 0.1 L/kg; V2 ([1]; GHI-M (GHI 5 mL/kg, i.v.)): 0.935 ± 0.119 L/kg; t1/2α ([1]; GHI-M (GHI 5 mL/kg, i.v.)): 1.38 ± 0.3 min
O=c1c(O[C@@H]2O[C@H](CO)[C@@H](O)[C@H](O)[C@H]2O)c(-c2ccc(O)cc2)oc2cc(O)cc(O)c12 [Kaempferol-3-O-glucoside, kaempferol-3-O-glucoside]	141.2 ± 10.2	9.636 ± 0.934	17.927 ± 1.512	6.02 ± 0.636	141.2 ± 10.2	0.475 ± 0.044	1.419 ± 0.173	1.32 ± 0.12	87.58 ± 9.88	133.3 ± 27.68	10.09 ± 2.541	15.148 ± 3.65	2.832 ± 0.492	133.3 ± 27.67	0.54 ± 0.101	2.822 ± 0.3	1.56 ± 0.3	68.72 ± 8.47	79.43 ± 17.82	8.042 ± 3.472	Emax (maximal effect) of optimal PK/PD equation, ΔcTn I (cTn I; GHI-L ([…], i.v.)): 4.625; AUC(0-t) ([1]; GHI-H (GHI 10 mL/kg, i.v.)): 116.314 ± 56.651 ng·h/mL; AUC(0-∞) ([1]; GHI-H (GHI 10 mL/kg, i.v.)): 122.652 ± 56.297 ng·h/mL; t1/2β ([1]; GHI-H (GHI 10 mL/kg, i.v.)): 23.1 ± 3.18 min; AUC(0-t) ([1]; GHI-L (GHI […], i.v.)): 23.576 ± 12.633 ng·h/mL; AUC(0-∞) ([1]; GHI-L (GHI […], i.v.)): 25.109 ± 12.653 ng·h/mL; t1/2β ([1]; GHI-L (GHI […], i.v.)): 40.4 ± 5.64 min; AUC(0-t) ([1]; GHI-M (GHI 5 mL/kg, i.v.)): 31.49 ± 12.303 ng·h/mL; AUC(0-∞) ([1]; GHI-M (GHI 5 mL/kg, i.v.)): 35.448 ± 11.949 ng·h/mL; K12 ([1]; GHI-M (GHI 5 mL/kg, i.v.)): 9.709 ± 5.342 h⁻¹; K21 ([1]; GHI-M (GHI 5 mL/kg, i.v.)): 3.087 ± 1.742 h⁻¹; Q ([1]; GHI-M (GHI 5 mL/kg, i.v.)): 79.4 ± 17.78 mL/min/kg; V1 ([1]; GHI-M (GHI 5 mL/kg, i.v.)): 0.59 ± 0.22 L/kg; V2 ([1]; GHI-M (GHI 5 mL/kg, i.v.)): 1.87 ± 0.735 L/kg; t1/2α ([1]; GHI-M (GHI 5 mL/kg, i.v.)): 2.7 ± 1.44 min; t1/2β ([1]; GHI-M (GHI 5 mL/kg, i.v.)): 41.5 ± 21.7 min
CC(=O)N[C@@H](CCC(N)=O)C(=O)O [N-acetyl-L-glutamine]																					Emax (maximal effect) of optimal PK/PD equation, ΔcTn I (cTn I; GHI-H (10 mL/kg, i.v.)): 10.158; Emax (maximal effect) of optimal PK/PD equation, ΔcTn I (cTn I; GHI-L ([…], i.v.)): 4.608; Emax (maximal effect) of optimal PK/PD equation, ΔcTn I (cTn I; GHI-M (5 mL/kg, i.v.)): 6.714; Emax (maximal effect) of optimal PK/PD equation, ΔIMA (IMA; GHI-H (10 mL/kg, i.v.)): 77.916; Emax (maximal effect) of optimal PK/PD equation, ΔIMA (IMA; GHI-L ([…], i.v.)): 31.136; Emax (maximal effect) of optimal PK/PD equation, ΔIMA (IMA; GHI-M (5 mL/kg, i.v.)): 42.733; Emax (maximal effect) of optimal PK/PD equation, Δα-HBDH (α-HBDH; GHI-H (10 mL/kg, i.v.)): 91.925; Emax (maximal effect) of optimal PK/PD equation, Δα-HBDH (α-HBDH; GHI-L ([…], i.v.)): 48.85; Emax (maximal effect) of optimal PK/PD equation, Δα-HBDH (α-HBDH; GHI-M (5 mL/kg, i.v.)): 72.312; Emax (maximal effect) of optimal PK/PD equation, ΔCK-MB (CK-MB; GHI-L ([…], i.v.)): 11.04; Emax (maximal effect) of optimal PK/PD equation, ΔCK-MB (CK-MB; GHI-M (5 mL/kg, i.v.)): 13.089; AUC(0-t) ([1]; GHI-H (GHI 10 mL/kg, i.v.)): 1048.88 ± 551.764 ng·h/mL; AUC(0-∞) ([1]; GHI-H (GHI 10 mL/kg, i.v.)): 1079.308 ± 551.248 ng·h/mL; t1/2β ([1]; GHI-H (GHI 10 mL/kg, i.v.)): 42.5 ± 4.98 min; AUC(0-t) ([1]; GHI-L (GHI […], i.v.)): 538.219 ± 290.308 ng·h/mL; AUC(0-∞) ([1]; GHI-L (GHI […], i.v.)): 553.382 ± 290.017 ng·h/mL; t1/2β ([1]; GHI-L (GHI […], i.v.)): 48.8 ± 4.68 min; AUC(0-t) ([1]; GHI-M (GHI 5 mL/kg, i.v.)): 1012.749 ± 472.353 ng·h/mL; AUC(0-∞) ([1]; GHI-M (GHI 5 mL/kg, i.v.)): 1060.065 ± 473.211 ng·h/mL; t1/2β ([1]; GHI-M (GHI 5 mL/kg, i.v.)): 27.7 ± 1.38 min
